The source of these data is ChEMBL document CHEMBL1159155, “An ether-based peptide analog as c-AMP-dependent protein kinase inhibitor/substrate” (Bioorg Med Chem Lett, 1994).

Assay [1] can be described thus: Inhibition of bovine heart cAMP-dependent protein kinase (PKA). On the set-up: species or system Bos taurus.
Assay [2] is filed under the species Bos taurus. Put plainly: Affinity for bovine heart cAMP-dependent protein kinase.
Assay [3] is filed under the species Bos taurus. Put plainly: Activity against bovine heart cAMP-dependent protein kinase.

Non-standard residues stand in square brackets, D forms with d. Residues, ends and D or L forms follow the SMILES beside them. *: point of attachment. Bpa = N[C@@H](Cc1ccc(C(=O)c2ccccc2)cc1)C(=O)O; Npys = O=[N+]([O-])c1cccnc1S*; X1 = CC(C)CCOC[C@H](CO)N*

By Kd is commonly meant a measure of binding affinity in units of concentration. A word on the Ki: it is the dissociation constant of the complex between target and ligand, obtained from inhibition or displacement. A lower Ki goes with a stronger hold on the target. The Km is the substrate concentration at which the rate is half of its maximum. The term Vmax denotes the rate approached at saturating substrate.

Take `CC(C)C[C@H](NC(=O)[C@H](Cc1ccc(C(=O)c2ccccc2)cc1)NC(=O)[C@H](C)NC(=O)[C@H](CCCN=C(N)N)NC(=O)[C@H](CCCN=C(N)N)NC(=O)[C@@H](N)CC(C)C)C(=O)NCC(=O)O` (H-LRRA[Bpa]LG-OH): the Kd in assay [1] is 110 µM. Take `CC(C)CCOC[C@H](CO)NC(=O)[C@H](C)NC(=O)[C@H](CCCN=C(N)N)NC(=O)[C@H](CCCN=C(N)N)NC(=O)[C@@H](N)CC(C)C` (H-LRRA-X1): in assay [1], the Ki came out at 120 µM. For the same compound, in the assay listed under Bos taurus [2], the Km stood at 108 µM. Further, in the assay listed under Bos taurus [3], the Vmax turned out to be 0.107 µM/min/mg.

Consider `CC(C)C[C@H](NC(=O)[C@H](CSSc1ncccc1[N+](=O)[O-])NC(=O)[C@H](C)NC(=O)[C@H](CCCN=C(N)N)NC(=O)[C@H](CCCN=C(N)N)NC(=O)[C@@H](N)CC(C)C)C(=O)NCC(=O)O` (H-LRRAC(Npys)LG-OH), for which the Kd in assay [1] is 40 µM. In assay [1], `CC(C)C[C@H](NC(=O)[C@H](CO)NC(=O)[C@H](C)NC(=O)[C@H](CCCNC(=N)N)NC(=O)[C@H](CCCNC(=N)N)NC(=O)[C@@H](N)CC(C)C)C(=O)NCC(=O)O` [KEMPTIDE] came in with a Kd of 250 µM. For the same compound, in the assay filed under Bos taurus [2], the Km was found to be 4.6 µM and the Vmax worked out at 0.38 µM/min/mg. Turning to H-LRRAALG-OH, the affinity in assay [1], expressed as Kd, was 490 µM.
